Numbers after ± are expanded uncertainties.
Conditions: for Glass transition temperature: DSC; for Normal melting temperature: Crystal, DTA

Row | Glass transition temperature | Normal melting temperature | SMILES
1 | -47 ± 6 °C | – | CCCCCC[N+](C)(CCO)CCO.[Br-] [N,N-bis(2-hydroxyethyl)-N-methylhexan-1-aminium bromide]
2 | – | 47 ± 6 °C | CCCCCCCCCC[N+](C)(CCO)CCO.[Br-] [N,N-bis(2-hydroxyethyl)-N-methyldecan-1-aminium bromide]
3 | -49 ± 6 °C | – | CCCC[N+](C)(CCO)CCO.[Br-] [N,N-bis(2-hydroxyethyl)-N-methylbutan-1-aminium bromide]
4 | – | 27 ± 6 °C | CCCCCCCC[N+](C)(CCO)CCO.[Br-] [N,N-bis(2-hydroxyethyl)-N-methyloctan-1-aminium bromide]
5 | -50 ± 6 °C | – | CCCC[N+](CCO)(CCO)CCCC.[Br-] [N-butyl-N,N-bis(2-hydroxyethyl)butan-1-aminium bromide]
